For 14 compounds, IC50 results are on record in patent US11964953B2, “Substituted aminothiazoles as DGKzeta inhibitors for immune activation” (Bayer Aktiengesellschaft, priority 2020, dated 2024).

human DGKζ, sequence (Q13574 other isoform, or with tags, fused parts or gaps): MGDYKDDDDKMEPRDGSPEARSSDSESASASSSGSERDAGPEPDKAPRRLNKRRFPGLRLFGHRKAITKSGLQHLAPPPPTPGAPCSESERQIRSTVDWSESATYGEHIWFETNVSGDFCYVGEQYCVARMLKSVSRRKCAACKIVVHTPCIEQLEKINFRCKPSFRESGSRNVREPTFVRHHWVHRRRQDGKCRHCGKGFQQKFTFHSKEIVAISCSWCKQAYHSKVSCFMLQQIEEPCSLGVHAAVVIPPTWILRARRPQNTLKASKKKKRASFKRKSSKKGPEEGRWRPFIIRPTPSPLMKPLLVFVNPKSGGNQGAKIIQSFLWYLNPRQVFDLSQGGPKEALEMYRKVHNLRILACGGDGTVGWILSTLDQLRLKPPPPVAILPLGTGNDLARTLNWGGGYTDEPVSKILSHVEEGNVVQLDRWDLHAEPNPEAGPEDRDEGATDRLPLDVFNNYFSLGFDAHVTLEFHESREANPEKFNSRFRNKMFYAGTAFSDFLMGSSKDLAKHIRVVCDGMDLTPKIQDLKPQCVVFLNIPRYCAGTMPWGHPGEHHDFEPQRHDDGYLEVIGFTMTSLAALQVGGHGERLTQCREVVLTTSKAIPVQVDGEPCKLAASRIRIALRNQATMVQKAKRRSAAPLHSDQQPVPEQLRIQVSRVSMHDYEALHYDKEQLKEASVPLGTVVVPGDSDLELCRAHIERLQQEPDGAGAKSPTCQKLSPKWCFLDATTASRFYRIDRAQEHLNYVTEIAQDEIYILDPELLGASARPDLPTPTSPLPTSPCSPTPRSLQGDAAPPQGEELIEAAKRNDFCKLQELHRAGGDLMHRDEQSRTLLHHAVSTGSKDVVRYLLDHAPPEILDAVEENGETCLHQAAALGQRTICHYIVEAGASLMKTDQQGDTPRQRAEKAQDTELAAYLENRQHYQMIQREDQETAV

The experiment concerns the target human DGKζ (Homo sapiens (Human), UniProt Q13574). Put plainly: Human DGKζ kinase activity inhibition assay (ADP-Glo). As to conditions: in vitro human DGKζ kinase activity inhibition assay; read-out: IC50. It counts as biochemical. Summed up:
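Enzyme was C-terminally FLAG-tagged full-length recombinant human DGKζ from baculovirus-infected insect cells. Substrate preparation used octyl-β-D-glucopyranoside in 50 mM MOPS pH 7.4 with sonication; ADP generated was quantified by ADP-Glo luminescence as activity measure.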
In the case of `Cc1cc(C(=O)c2sc(N(c3ccc(F)cc3)C(C)C(N)=O)nc2N)ccn1` (single isomer, unassigned) [Example 187.2, 2-(N-[4-amino-5-(2-methylpyridine-4-carbonyl)thiazol-2-yl]-4-fluoro-anilino)propanamide], the IC50 is greater than 20000 nM.

On to `CC(C(N)=O)N(c1ccc(F)cc1)c1nc(N)c(C(=O)c2ccc(O)cc2)s1` (single isomer, unassigned) [Example 286, 2-(N-[4-amino-5-(4-hydroxybenzoyl)thiazol-2-yl]-4-fluoro-anilino)propanamide (single enantiomer)], for which the half-inhibitory concentration (IC50) turned out to be 31 nM. For `CC(C(N)=O)N(c1ccc(O)cc1)c1nc(N)c(C(=O)c2ccc(OC(F)F)cc2)s1` (single isomer, unassigned) [Example 291, 2-(N-[4-amino-5-[4-(difluoromethoxy)benzoyl]thiazol-2-yl]-4-hydroxy-anilino)propanamide (single enantiomer)], the IC50 was 178 nM.

Regarding `CCOC(=O)COc1ccc(C(=O)c2sc(N(c3ccc(F)cc3)C(C)C(N)=O)nc2N)cc1` (single isomer, unassigned; enantiomer 1) [Example 81.1, ethyl 2-[4-[4-amino-2-(4-fluoro-N-[2-amino-1-methyl-2-oxo-ethyl]anilino)thiazole-5-carbonyl]phenoxy]acetate (enantiomer 1)], the half-inhibitory concentration (IC50) was 1020 nM. As to `CC(C(N)=O)N(c1ccc(F)cc1)c1nc(N)c(C(=O)c2ccc(N3CCC(C)(C#N)CC3)nc2)s1` (single isomer, unassigned; enantiomer 1) [Example 285.1, 2-(N-[4-amino-5-[6-(4-cyano-4-methyl-1-piperidyl)pyridine-3-carbonyl]thiazol-2-yl]-4-fluoro-anilino)propanamide (enantiomer 1)], the half-inhibitory concentration (IC50) was 34 nM. Then `CC(C(N)=O)N(c1ccc(F)c(F)c1)c1nc(N)c(C(=O)c2ccc(O)cc2)s1` (single isomer, unassigned; enantiomer 1) [Example 287, 2-(N-[4-amino-5-(4-hydroxybenzoyl)thiazol-2-yl]-3,4-difluoro-anilino)propanamide (enantiomer 1)], with 18 nM. `CC(C(N)=O)N(c1ccc(Cl)c(F)c1)c1nc(N)c(C(=O)c2ccc(O)cc2)s1` (single isomer, unassigned; enantiomer 1) [Example 289, 2-(N-[4-amino-5-(4-hydroxybenzoyl)thiazol-2-yl]-4-chloro-3-fluoro-anilino)propanamide (enantiomer 1)]: the IC50 is 10 nM. Consider `CCOC(=O)COc1ccc(C(=O)c2sc(N(c3ccc(F)cc3)C(C)C(N)=O)nc2N)cc1` (single isomer, unassigned; enantiomer 2) [Example 81.2, ethyl 2-[4-[4-amino-2-(4-fluoro-N-[2-amino-1-methyl-2-oxo-ethyl]anilino)thiazole-5-carbonyl]phenoxy]acetate (enantiomer 2)], for which the 50% inhibitory concentration (IC50) was determined as 10.1 nM. As for `CC(C(N)=O)N(c1ccc(F)cc1)c1nc(N)c(C(=O)c2ccc(N3CCC(C)(C#N)CC3)nc2)s1` (single isomer, unassigned; enantiomer 2) [Example 285.2, 2-(N-[4-amino-5-[6-(4-cyano-4-methyl-1-piperidyl)pyridine-3-carbonyl]thiazol-2-yl]-4-fluoro-anilino)propanamide (enantiomer 2)], the IC50 turned out to be 432 nM. As for `CC(C(N)=O)N(c1ccc(F)c(F)c1)c1nc(N)c(C(=O)c2ccc(O)cc2)s1` (single isomer, unassigned; enantiomer 2) [Example 288, 2-(N-[4-amino-5-(4-hydroxybenzoyl)thiazol-2-yl]-3,4-difluoro-anilino)propanamide (enantiomer 2)], the IC50 is 3440 nM.

In the case of `CC(C(N)=O)N(c1ccc(Cl)c(F)c1)c1nc(N)c(C(=O)c2ccc(O)cc2)s1` (single isomer, unassigned; enantiomer 2) [Example 290, 2-(N-[4-amino-5-(4-hydroxybenzoyl)thiazol-2-yl]-4-chloro-3-fluoro-anilino)propanamide (enantiomer 2)], the concentration for half-maximal inhibition (IC50) was 936 nM. Turning to `C[C@H](C(N)=O)N(c1ccc(F)c(F)c1)c1nc(N)c(C(=O)c2ccc(OC(F)F)cc2)s1` [Example 49.2, (R)-2-(N-[4-amino-5-[4-(difluoromethoxy)benzoyl]thiazol-2-yl]-3,4-difluoro-anilino)propanamide], the IC50 was found to be 2.1 nM. Then `COc1ccc(C(=O)c2sc(N(c3ccc(Cl)c(F)c3)[C@H](C)C(N)=O)nc2N)cc1` [Example 59.1, (R)-2-(N-[4-amino-5-(4-methoxybenzoyl)thiazol-2-yl]-4-chloro-3-fluoro-anilino)propanamide], with 4 nM; and `C[C@H](C(N)=O)N(c1ccc(F)cc1)c1nc(N)c(C(=O)c2ccccc2)s1` [Example 61.2, (R)-2-(N-(4-amino-5-benzoyl-thiazol-2-yl)-4-fluoro-anilino)propanamide], with 108 nM.
